Assay results published in patent US6355634B1, “Aromatic compounds” (Bayer Aktiengesellschaft, priority 1990, dated 2002).

Columns and labels:
Assay type in all cases: in vivo
[1] = tested on: Alternaria brassicae; test: Alternaria brassicae (protective action) on cabbage seedlings; conditions: 50 ppm spray, cabbage cv. Vorbote, evaluated 2-5 days after infection, read-out: action (leaf area infected with Alternaria brassicae as a percentage compared with the infected, untreated control)
Protocol: Alternaria brassicae (Protective Action)
4 cabbage seedlings, cv. “Vorbote”, in the 6-leaf stage, distributed to 2 pots, are sprayed thoroughly with a spray mixture prepared with a wettable powder of the active substance (with 50 ppm of active ingredient) and subsequently cultured further in a controlled-environment cabinet at 19° C. and with 16 hours illumination per day. Two days after the treatment, the plants are infected by spraying with an aqueous conidia suspension (approx. 30,000 conidia/ml). The cabbage plants are then incubated at 24-26° C., under dew-point conditions and with a photoperiod of 16 hours. The test is evaluated 2-5 days after the infection by determining the leaf area infected with Alternaria brassicae as a percentage compared with the infected, untreated control.

[2] = tested on: Cercospora arachidicola; test: Action against Cercospora arachidicola on peanut plants (curative action); conditions: Mycosphaerella arachidis, 288 h, 160 ppm spray, peanut cv. Tamnut, evaluated 12 days after treatment, read-out: action (leaf area infected with Cercospora arachidicola as a percentage compared with the infected control)
Protocol: Action Against Cercospora arachidicola on Peanut Plants (Curative Action)
Two peanut plants cv. “Tamnut” in the 4-leaf stage are sprayed with a conidia suspension of Cercospora arachidicola (approx. 200,000 conidia/ml) and subsequently incubated at 25-26° C. and under dew-point conditions. After two days, the plants are sprayed thoroughly from all sides with a spray mixture prepared with a wettable powder of the active substance (with 160 ppm of active ingredient). The treated plants are subsequently incubated in a controlled-environment cabinet under the following conditions: 25-27° C. and 80% atmospheric humidity during the day, 20° C. and dew-point conditions during the night; the photoperiod in each case is 16 hours. 12 days after the treatment, the test is evaluated by determining the leaf area infected with Cercospora arachidicola as a percentage compared with the infected control.

[3] = tested on: Venturia inaequalis; test: Venturia inaequalis (curative action) on apple seedlings; conditions: 50 ppm spray, apple cv. Golden Delicious, evaluated 9-10 days after treatment, read-out: action (leaf area covered in Venturia inaequalis as a percentage compared with the infected control)
Protocol: Venturia inaequalis (Curative Action)
Two apple seedlings cv. “Golden Delicious” are sprayed with a conidia suspension of Venturia inaequalis and subsequently incubated at 18° C. and under dew-point conditions. After 24 hours, the plants are sprayed thoroughly from all sides with a spray mixture prepared with a wettable powder of the active substance (with 50 ppm of active ingredient). The treated apple seedlings are subsequently cultured further in the greenhouse. 9-10 days after the treatment, the test is evaluated by determining the leaf area covered in Venturia inaequalis as a percentage compared with the infected control.

[4] = tested on: Erysiphe graminis; test: Erysiphe graminis (protective action) on wheat seedlings; conditions: Blumeria graminis, 168 h, 160 ppm spray, wheat cv. Lita, evaluated 7 days after infection, read-out: action (leaf area covered in Erysiphe graminis as a percentage compared with the infected control)
Protocol: Erysiphe graminis (Protective Action)
30-40 wheat seedlings cv. “Lita” in the 1-leaf stage (distributed to two pots of ø7 cm) are sprayed thoroughly with a spray mixture prepared with a wettable powder of the active substance (with 160 ppm of active ingredient) and then cultured further in the greenhouse. One day after the treatment, the plants are dusted with conidia of Erysiphe graminis. The test is evaluated 7 days after the infection by determining the size of the leaf area covered in Erysiphe graminis as a percentage compared with the infected control.
Untreated, but infected control plants show a level of infection with Erysiphe of 100%.

[5] = tested on: Plasmopara viticola; test: Plasmopara viticola (protective action) on grapevine seedlings; conditions: 144 h, 160 ppm spray, grapevine cv. Riesling x Sylvaner, day 6 after infection, read-out: action (leaf area infected with Plasmopara viticola as a percentage compared with the infected, untreated control)
Protocol: Plasmopara viticola (Protective Action)
2 grapevine seedlings cv. Riesling×Sylvaner, each in the 4-5 leaf stage, are sprayed thoroughly from all sides with a spray mixture prepared with a wettable powder of the active substance (with 160 ppm of active ingredient) and subsequently cultured further in a controlled-environment cabinet at 17° C., 70-80% relative atmospheric humidity and with a photoperiod of 16 hours. After 6 days, the test plants are infected by spraying the undersides of the leaves with zoosporangia of Plasmopara viticola, suspended in distilled water (approx. 300,000 sporangia/ml). The grapevine plants are then incubated as follows: 1 day at 22° C. and under dew-point conditions in the dark and subsequently 4 days in the greenhouse. To induce fructification of Plasmopara viticola, the grapevines are transferred to a controlled-environment cabinet with dew-point conditions at 22° C. on day 5 after the infection.
The tests are carried out in each case on day 6 after the infection by determining the leaf area infected with Plasmopara viticola as a percentage compared with the infected, untreated control.

For CO/N=C(\C(=O)OC)c1ccccc1CON=C(C)C(=O)c1cccc([N+](=O)[O-])c1 [Compound 130], the pest or weed control at 50 ppm [1] was > 75% and the pest or weed control at 160 ppm [2] was > 75%.
For CCOc1cc(C(C)=NOCc2ccccc2/C(=N/OC)C(=O)OC)ccc1OC [Compound 85], the pest or weed control at 50 ppm [3] was > 75%.
CO/N=C(\C(=O)OC)c1ccccc1CON=C(c1ccccc1)C(F)(F)F [Compound 27] was tested, and the pest or weed control at 160 ppm [4] was > 75%.
In the case of C#CCOc1cccc(C(C)=NOCc2ccccc2/C(=N/OC)C(=O)OC)c1 [Compound 67], the pest or weed control at 50 ppm [1] was > 75%.
For CO/N=C(\C(=O)OC)c1ccccc1CON=C(SC)c1ccc(Cl)cc1 [Compound 125], the pest or weed control at 160 ppm [5] was > 75%.
In the case of CO/N=C(\C(=O)OC)c1ccccc1CON=C(C)c1ccc2cc(OC)ccc2c1 [Compound 119], the pest or weed control at 160 ppm [4] was > 75%.
In the case of CO/N=C(\C(=O)OC)c1ccccc1CON=C(C)c1ccc2c(c1)OCO2 [Compound 38], the pest or weed control at 50 ppm [1] was > 75%, the pest or weed control at 160 ppm [2] was > 75% and the pest or weed control at 160 ppm [5] was > 75%. For the same compound, the pest or weed control at 50 ppm [3] was > 75%.
CCCC(=NOCc1ccccc1/C(=N/OC)C(=O)OC)c1ccccc1 [Compound 18] was tested, and the pest or weed control at 160 ppm [4] was > 75%.
For CO/N=C(\C(=O)OC)c1ccccc1CON=C(C)C(=O)c1ccc2c(c1)OCO2 [Compound 64], the pest or weed control at 50 ppm [3] was > 75%.
For CO/N=C(\C(=O)OC)c1ccccc1CON=C(C)c1ccccc1 [Compound 134], the pest or weed control at 50 ppm [3] was > 75%.
For CO/N=C(\C(=O)OC)c1ccccc1CON=C(C)c1ccc(OC)cc1 [Compound 19], the pest or weed control at 160 ppm [2] was > 75% and the pest or weed control at 50 ppm [3] was > 75%.
With CO/N=C(\C(=O)OC)c1ccccc1CON=C(SC)c1cccc(C(F)(F)F)c1 [Compound 126] the pest or weed control at 160 ppm [4] was > 75%.
For CO/N=C(\C(=O)OC)c1ccccc1CON=C(c1cccc(Cl)c1)C1CC1 [Compound 145], the pest or weed control at 160 ppm [2] was > 75%.
CO/N=C(\C(=O)OC)c1ccccc1CON=C(c1cccc(Br)c1)C1CC1 [Compound 147] was tested, and the pest or weed control at 160 ppm [5] was > 75% and the pest or weed control at 50 ppm [3] was > 75%.
For CO/N=C(\C(=O)OC)c1ccccc1CON=C(c1cccc(C(F)(F)F)c1)C(F)(F)F [Compound 39], the pest or weed control at 160 ppm [4] was > 75%.
With CO/N=C(\C(=O)OC)c1ccccc1CON=C(c1ccc2ccccc2c1)C(F)(F)F [Compound 143] the pest or weed control at 50 ppm [1] was > 75%.
C=CCOc1cccc(C(C)=NOCc2ccccc2/C(=N/OC)C(=O)OC)c1 [Compound 66] was tested, and the pest or weed control at 160 ppm [2] was > 75% and the pest or weed control at 50 ppm [3] was > 75%.
CO/N=C(\C(=O)OC)c1ccccc1CON=C(C)C(C)=CC=C(C)CCC=C(C)C [Compound 23] was tested, and the pest or weed control at 160 ppm [4] was > 75% and the pest or weed control at 50 ppm [1] was > 75%.
With CO/N=C(\C(=O)OC)c1ccccc1CON=C(C)C(C)Oc1ccccc1 (centres unmarked) [Compound 37] the pest or weed control at 160 ppm [4] was > 75%.
CO/N=C(\C(=O)OC)c1ccccc1CON=C(C)c1cccc(OCC#N)c1 [Compound 92] was tested, and the pest or weed control at 50 ppm [1] was > 75%.
CO/N=C(\C(=O)OC)c1ccccc1CON=CC(=O)c1cccs1 [Compound 105] was tested, and the pest or weed control at 160 ppm [4] was > 75%, the pest or weed control at 50 ppm [1] was > 75% and the pest or weed control at 50 ppm [3] was > 75%.
In the case of CO/N=C(\C(=O)OC)c1ccccc1CON=C(OC)c1ccc(Cl)cc1 [Compound 127], the pest or weed control at 160 ppm [4] was > 75%.
In the case of CO/N=C(\C(=O)OC)c1ccccc1CON=C(C)c1ccc(OC)c(CSC)c1 [Compound 49], the pest or weed control at 160 ppm [2] was > 75% and the pest or weed control at 50 ppm [3] was > 75%.
CO/N=C(\C(=O)OC)c1ccccc1CON=C(C)c1ccc(OC)c([N+](=O)[O-])c1 [Compound 82] was tested, and the pest or weed control at 160 ppm [5] was > 75% and the pest or weed control at 50 ppm [3] was > 75%.
For CO/N=C(\C(=O)OC)c1ccccc1CON=C(C)c1cc(OC)c(OC)c(OC)c1 [Compound 20], the pest or weed control at 50 ppm [1] was > 75% and the pest or weed control at 50 ppm [3] was > 75%.
CO/N=C(\C(=O)OC)c1ccccc1CON=C(C)c1ccc(Cl)c(Cl)c1 [Compound 13] was tested, and the pest or weed control at 160 ppm [4] was > 75%, the pest or weed control at 50 ppm [1] was > 75% and the pest or weed control at 160 ppm [2] was > 75%. For the same compound, the pest or weed control at 50 ppm [3] was > 75%.
In the case of CO/N=C(\C(=O)OC)c1ccccc1CON=C(c1ccc(F)cc1)C1CC1 [Compound 89], the pest or weed control at 160 ppm [4] was > 75%.
CO/N=C(\C(=O)OC)c1ccccc1CON=C(C)c1cc(Cl)cc(Cl)c1 [Compound 136] was tested, and the pest or weed control at 50 ppm [1] was > 75%.
For CO/N=C(\C(=O)OC)c1ccccc1CON=C(C)c1cccc(SC#N)c1 [Compound 71], the pest or weed control at 160 ppm [2] was > 75%.
With CO/N=C(\C(=O)OC)c1ccccc1CON=C(SC)c1ccccc1 [Compound 124] the pest or weed control at 50 ppm [1] was > 75% and the pest or weed control at 50 ppm [3] was > 75%.
For CO/N=C(\C(=O)OC)c1ccccc1CON=C(c1ccc(Cl)cc1)C(F)(F)F [Compound 142], the pest or weed control at 50 ppm [3] was > 75%.
In the case of CO/N=C(\C(=O)OC)c1ccccc1CON=C(c1ccc2ccccc2c1)C1CC1 [Compound 150], the pest or weed control at 50 ppm [1] was > 75% and the pest or weed control at 160 ppm [5] was > 75%.
CO/N=C(\C(=O)OC)c1ccccc1CON=C(C)c1cccc([N+](=O)[O-])c1 [Compound 26] was tested, and the pest or weed control at 50 ppm [1] was > 75% and the pest or weed control at 160 ppm [2] was > 75%.
For CO/N=C(\C(=O)OC)c1ccccc1CON=C(C)Cc1ccc2c(c1)OCO2 [Compound 54], the pest or weed control at 50 ppm [1] was > 75% and the pest or weed control at 50 ppm [3] was > 75%.
For CO/N=C(\C(=O)OC)c1ccccc1CON=C(c1ccc2c(c1)OCO2)C1CC1 [Compound 41], the pest or weed control at 160 ppm [2] was > 75% and the pest or weed control at 160 ppm [5] was > 75%.
CO/N=C(\C(=O)OC)c1ccccc1CON=C(C)c1cccc(OCC2CC2)c1 [Compound 68] was tested, and the pest or weed control at 160 ppm [2] was > 75%.
With CO/N=C(\C(=O)OC)c1ccccc1CON=C(C)c1ccc([N+](=O)[O-])cc1 [Compound 25] the pest or weed control at 160 ppm [4] was > 75%, the pest or weed control at 50 ppm [1] was > 75% and the pest or weed control at 160 ppm [2] was > 75%.
With CO/N=C(\C(=O)OC)c1ccccc1CON=C(C)c1cccc(C#N)c1 [Compound 70] the pest or weed control at 160 ppm [4] was > 75%.
With CO/N=C(\C(=O)OC)c1ccccc1CON=C(C)c1ccc(OC(F)(F)C(F)(F)F)cc1 [Compound 106] the pest or weed control at 50 ppm [3] was > 75%.
CO/N=C(\C(=O)OC)c1ccccc1CON=C(C)c1cc(C)ccc1F [Compound 137] was tested, and the pest or weed control at 160 ppm [4] was > 75%.
For CO/N=C(\C(=O)OC)c1ccccc1CON=C(C)c1cccs1 [Compound 14], the pest or weed control at 50 ppm [1] was > 75%, the pest or weed control at 160 ppm [2] was > 75% and the pest or weed control at 50 ppm [3] was > 75%.
For COCc1cc(C(C)=NOCc2ccccc2/C(=N/OC)C(=O)OC)ccc1OC [Compound 83], the pest or weed control at 160 ppm [2] was > 75% and the pest or weed control at 50 ppm [3] was > 75%.
In the case of CCC(=NOCc1ccccc1/C(=N/OC)C(=O)OC)c1ccccc1 [Compound 28], the pest or weed control at 50 ppm [1] was > 75%, the pest or weed control at 160 ppm [5] was > 75% and the pest or weed control at 50 ppm [3] was > 75%.
CO/N=C(\C(=O)OC)c1ccccc1CON=C(c1cccc(Cl)c1)C(F)(F)F [Compound 141] was tested, and the pest or weed control at 160 ppm [4] was > 75%.
For CO/N=C(\C(=O)OC)c1ccccc1CON=C(c1ccc(Oc2ccccc2)cc1)C1CC1 [Compound 149], the pest or weed control at 160 ppm [4] was > 75%.
For CO/N=C(\C(=O)OC)c1ccccc1CON=C(C)c1cccc(F)c1 [Compound 40], the pest or weed control at 160 ppm [4] was > 75% and the pest or weed control at 160 ppm [2] was > 75%.
In the case of CO/N=C(\C(=O)OC)c1ccccc1CON=C(C)C(=O)c1cccc(Br)c1 [Compound 129], the pest or weed control at 160 ppm [2] was > 75% and the pest or weed control at 160 ppm [5] was > 75%.
